Values after ≈ are worked out from the molar mass of the structure shown. Active and inactive are the calls of the source. No cut-off for these calls is given here.
How the values were obtained:
Escherichia coli [1] = assay: Antimicrobial activity against Escherichia coli DH10B expressing wild type Beta-lactamase SHV-1 by CLSI agar dilution method; type: functional
Escherichia coli [2] = assay: Antimicrobial activity against Escherichia coli DH10B expressing Beta-lactamase SHV-1 K234X protein mutant by CLSI agar dilution method; type: functional
Escherichia coli [3] = assay: Antimicrobial activity against Escherichia coli DH10B expressing Beta-lactamase SHV-1 K234A protein mutant by CLSI agar dilution method; type: functional
Escherichia coli [4] = assay: Antimicrobial activity against Escherichia coli DH10B expressing Beta-lactamase SHV-1 K234R protein mutant by CLSI agar dilution method; type: functional
Escherichia coli [5] = assay: Antimicrobial activity against Escherichia coli DH10B by CLSI agar dilution method; type: functional
Escherichia coli [6] = assay: Antimicrobial activity against Escherichia coli DH10B expressing Beta-lactamase SHV K234X mutant by CLSI agar dilution method in presence of ampicillin; type: functional
Escherichia coli [7] = assay: Antimicrobial activity against Escherichia coli DH10B expressing wild type Beta-lactamase SHV1 gene by CLSI agar dilution method in presence of ampicillin; type: functional
Escherichia coli [8] = assay: Binding affinity to Beta-lactamase SHV-1 K234R protein mutant in Escherichia coli DH10B assessed as change in secondary structure at 50 uM by circular dichroism analysis
Escherichia coli [9] = assay: Antimicrobial activity against Escherichia coli DH10B by CLSI agar dilution method in presence of ampicillin; type: functional
Escherichia coli [10] = assay: Antimicrobial activity against Escherichia coli DH10B expressing Beta-lactamase SHV K234R mutant by CLSI agar dilution method in presence of ampicillin; type: functional
Escherichia coli [11] = assay: Binding affinity to wild type Beta-lactamase SHV-1 in Escherichia coli DH10B assessed as change in secondary structure at 50 uM by circular dichroism analysis
Escherichia coli [12] = assay: Binding affinity to wild type Beta-lactamase SHV-1 in Escherichia coli DH10B assessed as melting temperature at 50 uM by circular dichroism analysis
Escherichia coli [13] = assay: Binding affinity to Beta-lactamase SHV-1 K234R protein mutant in Escherichia coli DH10B assessed as melting temperature at 50 uM by circular dichroism analysis
Escherichia coli [14] = assay: Antimicrobial activity against Escherichia coli DH10B expressing Beta-lactamase SHV K234A mutant by CLSI agar dilution method in presence of ampicillin; type: functional
Escherichia coli [15] = assay: Activity of wild type Beta-lactamase SHV-1 in Escherichia coli DH10B by Henri-Michaelis-Menten steady state equation analysis
Escherichia coli [16] = assay: Activity of Beta-lactamase SHV-1 K234R protein mutant in Escherichia coli DH10B by Henri-Michaelis-Menten steady state equation analysis
Escherichia coli [17] = assay: Ratio of Kcat to Km for wild type Beta-lactamase SHV-1 in Escherichia coli DH10B
[18] = Inhibition of wild type Beta-lactamase SHV-1 in Escherichia coli DH10B by Henri-Michaelis-Menten steady state equation analysis
[19] = Inhibition of Beta-lactamase SHV-1 K234R protein mutant in Escherichia coli DH10B by Henri-Michaelis-Menten steady state equation analysis
Escherichia coli [20] = assay: Selectivity ratio of Ki for Beta-lactamase SHV-1 in Escherichia coli DH10B to Ki for Beta-lactamase SHV-1 K234R protein mutant in Escherichia coli DH10B
Escherichia coli [21] = assay: Ratio of Kcat to Km for Beta-lactamase SHV-1 K234R protein mutant in Escherichia coli DH10B

With `CC1(C)S[C@@H]2[C@H](NC(=O)[C@H](N)c3ccccc3)C(=O)N2[C@H]1C(=O)O` [AMPICILLIN] the MIC (Escherichia coli [1]) was over 16400 µg/mL, the MIC (Escherichia coli [2]) was 4 µg/mL (≈ 11.4 µM) and the MIC (Escherichia coli [3]) was 32 µg/mL (≈ 91.6 µM). For the same compound, the MIC (Escherichia coli [4]) was 16400 µg/mL (≈ 46900 µM) and the MIC (Escherichia coli [5]) was 1 µg/mL (≈ 2.86 µM).

In the case of `C[C@]1(Cn2ccnn2)[C@H](C(=O)O)N2C(=O)C[C@H]2S1(=O)=O` [TAZOBACTAM], the MIC (Escherichia coli [6]) is reported as under 0.06 µg/mL, the MIC (Escherichia coli [7]) is reported as 128 µg/mL and the inhibition (Escherichia coli [8]) is reported as “inactive”. The MIC (Escherichia coli [9]) was under 0.06 µg/mL, the MIC (Escherichia coli [10]) was 16 µg/mL and the inhibition (Escherichia coli [11]) was “Active”. It also gave a Tm (Escherichia coli [12]) of 54.4 °C, a Tm (Escherichia coli [13]) of 49 °C and an MIC (Escherichia coli [14]) of under 0.06 µg/mL.

With `CCN1CCN(C(=O)N[C@@H](C(=O)N[C@@H]2C(=O)N3[C@@H]2SC(C)(C)[C@@H]3C(=O)O)c2ccccc2)C(=O)C1=O` [PIPERACILLIN] the Km (Escherichia coli [15]) was 74.6 µM, the kcat (Escherichia coli [15]) was 1180 s⁻¹ and the MIC (Escherichia coli [1]) was over 4100 µg/mL. It also gave a Km (Escherichia coli [16]) of 305 µM, an MIC (Escherichia coli [2]) of 4 µg/mL (≈ 7.73 µM) and an MIC (Escherichia coli [3]) of 8 µg/mL (≈ 15.5 µM). It also gave an MIC (Escherichia coli [4]) of 2050 µg/mL (≈ 3960 µM), an MIC (Escherichia coli [5]) of 1 µg/mL (≈ 1.93 µM) and a kcat/Km (Escherichia coli [17]) of 1.58e+07 M⁻¹ s⁻¹.

In the case of `O=C(Cc1cccs1)N[C@@H](Cc1cccc(C(=O)O)c1)B(O)O`, the Ki [18] is reported as 460 nM and the Ki [19] is reported as 12 nM.

With `CCN1CCN(C(=O)N[C@@H](C(=O)N[C@@H](Cc2cccc(C(=O)O)c2)B(O)O)c2ccc(O)cc2)C(=O)C1=O` the Ki [18] was 9.3 nM and the Ki [19] was 13.5 nM.

With `CC1(C)[C@H](C(=O)O)N2C(=O)C[C@H]2S1(=O)=O` [SULBACTAM] the MIC (Escherichia coli [6]) was under 0.06 µg/mL, the MIC (Escherichia coli [7]) was 512 µg/mL and the inhibition (Escherichia coli [8]) was “inactive”. For the same compound, the MIC (Escherichia coli [9]) was under 0.06 µg/mL, the MIC (Escherichia coli [10]) was 64 µg/mL and the inhibition (Escherichia coli [11]) was “Active”. The Tm (Escherichia coli [12]) was 54.4 °C and the MIC (Escherichia coli [14]) was under 0.06 µg/mL.

With `N[C@@H](C(=O)N[C@@H](Cc1cccc(C(=O)O)c1)B(O)O)c1ccccc1` the Ratio Ki (Escherichia coli [20]) was 20, the Ki [18] was 56 nM and the Tm (Escherichia coli [12]) was 61.4 °C. The Tm (Escherichia coli [13]) was 54.8 °C and the Ki [19] was 2.4 nM.

For `O=C(Cc1cccs1)NCB(O)O`, the inhibition (Escherichia coli [8]) was “inactive”, the Ki [18] was 20000 nM and the inhibition (Escherichia coli [11]) was “Active”. For the same compound, the Tm (Escherichia coli [12]) was 55.1 °C, the Tm (Escherichia coli [13]) was 48.9 °C and the Ki [19] was 61000 nM.

With `O=C(O)[C@H]1/C(=C/CO)O[C@@H]2CC(=O)N21` [CLAVULANIC ACID] the MIC (Escherichia coli [7]) was 4 µg/mL, the inhibition (Escherichia coli [8]) was “Active” and the MIC (Escherichia coli [9]) was under 0.06 µg/mL. The MIC (Escherichia coli [10]) was 16 µg/mL, the inhibition (Escherichia coli [11]) was “Active” and the Tm (Escherichia coli [12]) was 55 °C. The Tm (Escherichia coli [13]) was 46.1 °C.

With `CCOc1ccc2ccccc2c1C(=O)N[C@@H](Cc1cccc(C(=O)O)c1)B(O)O` the Ki [18] was 37 nM and the Ki [19] was 48 nM.

`O=C(Cc1cccs1)N[C@@H]1C(=O)N2C(C(=O)O)=C(/C=C/c3ccc([N+](=O)[O-])cc3[N+](=O)[O-])CS[C@H]12` gave a Km (Escherichia coli [15]) of 24.7 µM, a kcat (Escherichia coli [15]) of 348 s⁻¹ and a Km (Escherichia coli [16]) of 10.4 µM. For the same compound, the kcat (Escherichia coli [16]) was 45.2 s⁻¹, the kcat/Km (Escherichia coli [17]) was 1.41e+07 M⁻¹ s⁻¹ and the kcat/Km (Escherichia coli [21]) was 4.3e+06 M⁻¹ s⁻¹.

Compound `CC(=O)OCC1=C(C(=O)O)N2C(=O)[C@@H](NC(=O)Cc3cccs3)[C@H]2SC1` [CEPHALOTHIN] has a Km (Escherichia coli [15]) of 48.9 µM, a kcat (Escherichia coli [15]) of 42.6 s⁻¹ and an MIC (Escherichia coli [1]) of 256 µg/mL (≈ 646 µM). It also gave a Km (Escherichia coli [16]) of 29 µM, an MIC (Escherichia coli [2]) of 8 µg/mL (≈ 20.2 µM) and an MIC (Escherichia coli [3]) of 8 µg/mL (≈ 20.2 µM). The MIC (Escherichia coli [4]) was 16 µg/mL (≈ 40.4 µM), the MIC (Escherichia coli [5]) was 2 µg/mL (≈ 5.04 µM) and the kcat/Km (Escherichia coli [17]) was 870000 M⁻¹ s⁻¹.
